# From patent US10842829B2, “Natural product to improve immunity and combat viral diseases, bacterial diseases, fungal diseases, and cancer diseases” (priority 2017, dated 2020)
# Legend:
# [1] = tested on: Streptococcus isolated from cow's milk; assay: Streptococcus germs cultured in a lab setting
# [2] = tested on: NHDF cells (Normal Human Dermal Fibroblast cell line); assay: XTT proliferation assay on NHDF cells; assay type: cell-based
# Experimental: FIGS. 20-23 and Tables F1-F4 relate to a study to determine the potency of novel natural extract compounds in inhibiting the proliferation of Normal Human Dermal Fibroblast cell line (NHDF cells). […] In this study: Compound I, III and IV which are arrangements of compound according to the present invention are evaluated in a XTT proliferation assay for 72 hours to determine its potency in inhibiting the proliferation of NHDF cells. Traditionally, the in-vitro determination of toxic effects of unknown compounds has been performed by counting viable cells after staining with a vital dye. The XTT system is a mean of measuring the activity of living cells via mitochondrial dehydrogenases. The XTT method is simple, accurate and yields reproducible results. […] Solutions of XTT, prepared in medium or balances salt solutions without phenol red, are yellowish in colour. Mitochondrial dehydrogenases of viable cells cleave the tetrazolium ring of XTT yielding orange formazon crystals which are soluble in aqueous solutions. The resulting orange colour is spectrophotometrically measured. The bio-reduction is XTT is inefficient but can be potentiated by the addition of an electron coupling agent such as phenazine methosulphate (PMS) to the reaction. An increase or decrease in cell numbers results in a concomitant change in the amount of formazon formed, indicating the degree of cytotoxicity caused by the test material. In the foregoing study the following kits and reagents were used: • Cells: NHDF, a Normal Human Dermal Fibroblast cell line (Lonza) • Media: FGM-2 bullet kit media • Cell culture T75 flasks (BD-Falcon-LAB353136) • 96 well cell clear tissue culture treated plates (BD-Falcon-LAB353072) • Dimethyl Sulphoxide (DMSO) (Sigma-D2650) • XT (Sigma-[…]) • PMS (Sigma-[…]) In the foregoing study, three arrangement of compound according to the present invention, which in FIGS. 20-23 and Tables F1-F4 are designated as compounds I, III and IV, were tested. In the foregoing study, the control or vehicle was sterile deionized water. In regard to experimental procedure, for seeding in a 96-well plate, the cells were re-suspended to a density of […] of complete FGM-2 Bullet kit medium. 80 μL of this cell suspension was added per well to seed 2000 cells per well. […] In the foregoing study, the following points relate to compound dilution and treatment: • 20 μL of stock (100×) was serially diluted (2×) in 20 μL of sterile deionized water. • 20 μL of each dilution was then added in triplicates in the previously seeded 96-well plate. • Cells treated with deionized water served as control. • 100 μL of complete Ham's F12 medium served as media blank for the data analysis. • 200 μL of PBS was added in all corner wells of the assay plate. Plate was then incubated for 72 hours in an incubator with 5% CO2 at 37° C. In the foregoing study, the following points relate to termination: • XTT reagent-1 mg/mL solution of XTT was made in serum-free Ham's F12 medium. […] The data was analyzed using GraphPad Prism Software. In regard to data generation in the foregoing study: • Raw data of OD values was obtained in the form of excel sheet from Victor X5 Multi-label Plate Reader. • Average of media blank and average of control was calculated. • Average media blank was subtracted from each experimental well and control.
# [3] = tested on: HT-1080 cells (fibrosarcoma cell line); assay: XTT proliferation assay on HT-1080 cells; assay type: cell-based; conditions: Homo sapiens
# mycoplasma = assay: Mycoplasma disease treatment; assay type: in vivo; conditions: three sheep
# Experimental: The experiment was at four sheep farms. The sheep suffered from cough and high temperature (42° C.). When performing autopsy on dead sheep, the congestion in the lungs was clear. […] Ampicillin only affects the cell wall.
# Another 10 sick sheep from each farm were isolated and treated with 5 ml of Tylosin and Enrofloxacin.
# Pasteurella = Pasteurella disease treatment; conditions: second group of 10 sheep, both antibiotics together
compound,measurement,setting,value
gentamicin,killing of germs,[1],not all germs were killed
O=C(O)c1cn(C2CC2)c2cc(N3CCNCC3)c(F)cc2c1=O [ciprofloxacin],killing of germs,[1],not all germs were killed
Tylozin,killing of germs,[1],not all germs were killed
COc1cccc2c1C(=O)c1c(O)c3c(c(O)c1C2=O)C[C@@](O)(C(=O)CO)C[C@@H]3O[C@H]1C[C@H](N)[C@H](O)[C@H](C)O1 [Doxorubicin],% Inhibition,[2]; Doxorubicin 0.000 μM,24.6%
same,inhibition at 0.001 µM,"[2]; Homo sapiens, Doxorubicin 0.001 μM",17.9%
same,inhibition at 0.004 µM,"[2]; Homo sapiens, Doxorubicin 0.004 μM",25.9%
same,inhibition at 0.01 µM,"[2]; Homo sapiens, Doxorubicin 0.01 μM",26.9%
same,inhibition at 0.04 µM,"[2]; Homo sapiens, Doxorubicin 0.04 μM",33.9%
same,inhibition at 0.11 µM,"[2]; Homo sapiens, Doxorubicin 0.11 μM",37.5%
same,inhibition at 0.33 µM,"[2]; Homo sapiens, Doxorubicin 0.33 μM",68.6%
same,inhibition at 1 µM,"[2]; Homo sapiens, Doxorubicin 1 μM",86.4%
same,inhibition at 3 µM,"[2]; Homo sapiens, Doxorubicin 3 μM",57.1%
same,inhibition at 0.0002 µM,[3]; Doxorubicin 0.0002 μM,16.1%
same,inhibition at 0.0005 µM,[3]; Doxorubicin 0.0005 μM,14.9%
same,inhibition at 0.0014 µM,[3]; Doxorubicin 0.0014 μM,22.1%
same,inhibition at 0.0041 µM,[3]; Doxorubicin 0.0041 μM,28.9%
same,inhibition at 0.0123 µM,[3]; Doxorubicin 0.0123 μM,63.6%
same,inhibition at 0.037 µM,[3]; Doxorubicin 0.0370 μM,76.4%
same,inhibition at 0.1111 µM,[3]; Doxorubicin 0.1111 μM,77.7%
same,inhibition at 0.3333 µM,[3]; Doxorubicin 0.3333 μM,91%
same,inhibition at 1 µM,[3]; Doxorubicin 1 μM,98.2%
neomycin,killing of germs,[1],not all germs were killed
Spiramycin,killing of germs,[1],not all germs were killed
CC1(C)S[C@@H]2[C@H](NC(=O)[C@H](N)c3ccccc3)C(=O)N2[C@H]1C(=O)O [Ampicillin],outcome of treatment,mycoplasma,they were not cured
same,killing of germs,[1],not all germs were killed
CCN1CCN(c2cc3c(cc2F)c(=O)c(C(=O)O)cn3C2CC2)CC1 [enrofloxacin],killing of germs,[1],not all germs were killed
same,speed of improvement versus product group,Pasteurella,slower than in the first group
[H]/N=C(/N)N[C@H]1[C@H](O)[C@@H](O)[C@H](O[C@@H]2O[C@@H](C)[C@](O)(C=O)[C@H]2O[C@@H]2O[C@@H](CO)[C@H](O)[C@@H](O)[C@@H]2NC)[C@@H](N/C(N)=N\[H])[C@@H]1O [streptomycin],killing of germs,[1],not all germs were killed
CC1=C(C(=O)O)N2C(=O)[C@@H](NC(=O)[C@H](N)c3ccccc3)[C@H]2SC1 [cephalexin],killing of germs,[1],not all germs were killed
penicillin,killing of germs,[1],not all germs were killed
Cc1onc(-c2ccccc2Cl)c1C(=O)N[C@@H]1C(=O)N2[C@@H]1SC(C)(C)[C@@H]2C(=O)O [cloxacillin],killing of germs,[1],not all germs were killed
NCC[C@H](O)C(=O)N[C@@H]1C[C@H](N)[C@@H](O[C@H]2O[C@H](CN)[C@@H](O)[C@H](O)[C@H]2O)[C@H](O)[C@H]1O[C@H]1O[C@H](CO)[C@@H](O)[C@H](N)[C@H]1O [amikacin],killing of germs,[1],not all germs were killed
CC[C@H]1OC(=O)[C@H](C)[C@@H](O[C@H]2C[C@@](C)(OC)[C@@H](O)[C@H](C)O2)[C@H](C)[C@@H](O[C@@H]2O[C@H](C)C[C@H](N(C)C)[C@H]2O)[C@](C)(O)C[C@@H](C)C(=O)[C@H](C)[C@@H](O)[C@]1(C)O [erythromycin],killing of germs,[1],not all germs were killed
